Measured values published in patent publication US11339157B1, “4H-pyrrolo[3,2-c]pyridin-4-one derivatives” (Bayer Aktiengesellschaft, priority 2017, dated 2022).
Where two headings read alike, the source gives them in different places.

Tests used:
[1] = target: EGFR ins SVD (insertion of SVD between D770 and N771) (Homo sapiens, UniProt P00533, INS767SVD); experiment: Exon 20-Mutant-EGFR(D770_N771insSVD) kinase assay (TR-FRET); format: biochemical
Description: Exon 20-Mutant-EGFR(D770_N771insSVD) Kinase Assay
Inhibitory activity of compounds of the present invention against an Epidermal Growth Factor Receptor (EGFR) with an insertion of the amino acids sequence SVD between D770 and N771 was quantified employing the TR-FRET based kinase activity assay as described in the following paragraphs.
For the assay 50 nl of a 100-fold concentrated solution of the test compound in DMSO was pipetted into either a black low volume 384 well microtiter plate or a black 1536 well microtiter plate (both Greiner Bio-One, Frickenhausen, Germany), 2 μl of a solution of EGFR in aqueous assay buffer [50 mM Hepes pH 7.0, 10 mM MgCl2, 1 mM dithiothreitol, 0.5 mM EGTA, 0.3 mM activated sodium ortho-vanadate, 0.005% (w/v) bovine serum albumin, 0.005% (v/v) Tween-20] were added and the mixture was incubated for 15 min at 22° C. to allow pre binding of the test compounds to the enzyme before the start of the kinase reaction. […] The concentration of EGFR was adjusted depending of the activity of the enzyme lot and was chosen appropriate to have the assay in the linear range, typical concentration was 15 pg/μl. The reaction was stopped by the addition of 3 μl of a solution of HTRF detection reagents (83.3 nM streptavidine-XL665 [Cisbio Bioassays, Codolet, France] and 1.67 nM PT66-Tb-Cryptate, a terbium-cryptate labelled anti-phospho-tyrosine antibody from Cisbio Bioassays [instead of the PT66 Tb cryptate PT66 Eu Chelate from Perkin Elmer can also be used]) in an aqueous EDTA-solution (133.3 mM EDTA, 0.2% (w/v) bovine serum albumin in 50 mM HEPES pH 7.5).
(§2) The resulting mixture was incubated 1 h at 22° C. to allow the binding of the biotinylated phosphorylated peptide to the streptavidine-XL665 and the PT66-Tb-Cryptate. Subsequently the amount of phosphorylated substrate was evaluated by measurement of the resonance energy transfer from the PT66-Tb-Cryptate to the streptavidine-XL665.

[2] = target: EGFR ins ASV (insertion of ASV between V769 and D770); experiment: Exon 20-Mutant-EGFR(V769_D770insASV) kinase assay (TR-FRET); format: biochemical, human; settings: 2 mM ATP
Description: Exon 20-Mutant-EGFR(V769_D770insASV) Kinase Assay
Inhibitory activity of compounds of the present invention against an Epidermal Growth Factor Receptor (EGFR) with an insertion of the amino acids sequence ASV between V769 and D770 was quantified employing the TR-FRET based kinase activity assay as described in the following paragraphs.
For the assay 50 nl of a 100-fold concentrated solution of the test compound in DMSO was pipetted into either a black low volume 384well microtiter plate or a black 1536 well microtiter plate (both Greiner Bio-One, Frickenhausen, Germany), 2 μl of a solution of EGFR in aqueous assay buffer [50 mM Hepes pH 7.0, 10 mM MgCl2, 1 mM dithiothreitol, 0.5 mM EGTA, 0.3 mM activated sodium ortho-vanadate, 0.005% (w/v) bovine serum albumin, 0.005% (v/v) Tween-20] were added and the mixture was incubated for 15 min at 22° C. to allow pre binding of the test compounds to the enzyme before the start of the kinase reaction. […] The concentration of EGFR was adjusted depending of the activity of the enzyme lot and was chosen appropriate to have the assay in the linear range, typical concentration was 2.5 pg/μl. The reaction was stopped by the addition of 3 μl of a solution of HTRF detection reagents (83.3 nM streptavidine-XL665 [Cisbio Bioassays, Codolet, France] and 1.67 nM PT66-Tb-Cryptate, an terbium-cryptate labelled anti-phospho-tyrosine antibody from Cisbio Bioassays [instead of the PT66 Tb cryptate PT66 Eu Chelate from Perkin Elmer can also be used]) in an aqueous EDTA-solution (133.3 mM EDTA, 0.2% (w/v) bovine serum albumin in 50 mM HEPES pH 7.5).
as §2

Bub1 = Bub1 (Homo sapiens (Human), UniProt O43683); experiment: Bub1 kinase assay (TR-FRET, 10 μM ATP); format: biochemical; settings: mean, read-out: Bub1 kinase assay IC50 [mol/l] (mean)
Chain of Bub1 (O43683 704-1085): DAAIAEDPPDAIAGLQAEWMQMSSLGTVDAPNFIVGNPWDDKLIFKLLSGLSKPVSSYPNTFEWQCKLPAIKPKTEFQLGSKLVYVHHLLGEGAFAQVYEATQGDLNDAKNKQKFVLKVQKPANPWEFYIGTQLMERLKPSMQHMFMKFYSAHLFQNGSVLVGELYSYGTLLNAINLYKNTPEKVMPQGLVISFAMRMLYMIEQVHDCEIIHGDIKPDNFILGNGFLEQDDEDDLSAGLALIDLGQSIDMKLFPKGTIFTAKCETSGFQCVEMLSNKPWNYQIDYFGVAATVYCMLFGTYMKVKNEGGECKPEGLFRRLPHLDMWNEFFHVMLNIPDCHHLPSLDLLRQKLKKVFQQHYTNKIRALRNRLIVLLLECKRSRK
Description: Bub1-inhibitory activities of compounds described in the present invention were quantified using a time-resolved fluorescence energy transfer (TR-FRET) kinase assay which measures phosphorylation of the synthetic peptide Biotin-Ahx-[…]—SEQ ID NO: 5 (C-terminus in amide form), purchased from e.g. Biosyntan (Berlin, Germany) by the (recombinant) catalytic domain of human Bub1 (amino acids 704-1085), expressed in Hi5 insect cells with an N-terminal His6-tag (SEQ ID NO: 9) and purified by affinity-(Ni-NTA) and size exclusion chromatography.
In a typical assay 11 different concentrations of each compound (0.1 nM, 0.33 nM, 1.1 nM, 3.8 nM, 13 nM, 44 nM, 0.15 μM, 0.51 μM, 1.7 μM, 5.9 μM and 20 μM) were tested in duplicate within the same microtiter plate. To this end, 100-fold concentrated compound solutions (in DMSO) were previously prepared by serial dilution (1:3.4) of 2 mM stocks in a clear low volume 384-well source microtiter plate (Greiner Bio-One, Frickenhausen, Germany), from which 50 nl of compounds were transferred into a black low volume test microtiter plate from the same supplier. […] The resulting mixture (5 μl final volume) was incubated at 22° C. during 60 min., and the reaction was stopped by the addition of 5 μl of an aqueous EDTA-solution (50 mM EDTA, in 100 mM HEPES pH 7.5 and 0.2% (w/v) bovine serum albumin) which also contained the TR-FRET detection reagents (0.2 μM streptavidin-XL665 [Cisbio Bioassays, Codolet, France] and 1 nM anti-phosho-Serine antibody [Merck Millipore, cat. #35-002] and 0.4 nM LANCE EU-W1024 labeled anti-mouse IgG antibody [Perkin-Elmer, product no. AD0077, alternatively a Terbium-cryptate-labeled anti-mouse IgG antibody from Cisbio Bioassays can be used]). The stopped reaction mixture was further incubated 1 h at 22° C. in order to allow the formation of complexes between peptides and detection reagents. Subsequently, the amount of product was evaluated by measurement of the resonance energy transfer from the Eu-chelate-antibody complex recognizing the Phosphoserine residue to the streptavidin-XL665 bound to the biotin moiety of the peptide. To this end, the fluorescence emissions at 620 nm and 665 nm after excitation at 330-350 nm were measured in a TR-FRET plate reader, e.g. a Rubystar or Pherastar (both from BMG Labtechnologies, Offenburg, Germany) or a Viewlux (Perkin-Elmer) and the ratio of the emissions (665 nm/[…]) was taken as indicator for the amount of phosphorylated substrate. The data were normalised using two sets of control wells for high-(=enzyme reaction without inhibitor=0%=Minimum inhibition) and low-(=all assay components without enzyme=100%=Maximum inhibition) Bub1 activity. IC50 values were calculated by fitting the normalized inhibition data to a 4-parameter logistic equation (Minimum, Maximum, IC50, Hill; Y=Max+(Min−Max)/(1+(X/IC50)Hill)).

Ba/F3-EGFR-insSVD cells = experiment: Proliferation assay in BA/F3 (ins SVD) cells (Cell Titer-Glo); format: cell-based; settings: Mus musculus
How it was run: (§1)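 Ba/F3 cells stably expressing retrovirally transduced EGFR-WT or EGFR-insSVD; WT cells plated with 10 ng/mL EGF, insSVD cells without EGF. Compound exposure 48 h at 37° C; viability read by CellTiter-Glo luminescence.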

Ba/F3-EGFR-WT cells = experiment: Proliferation assay in BA/F3 (wild type) cells (Cell Titer-Glo); format: cell-based; settings: Mus musculus
How it was run: as §1

[3] = 2 mM ATP, mean, read-out: EGFR ins SVD IC50 [mol/l] (mean)
[4] = Table 9, read-out: mutEGFR (D770_N771insSVD) kinase assay IC50
[5] = BaF3, 48 h, Table 10, plated without EGF
[6] = BaF3, 48 h, Table 10, plated with 10 ng/mL EGF

Chain of EGFR ins SVD (insertion of SVD between D770 and N771) (P00533 with tags, fused parts or gaps INS767SVD limits assumed): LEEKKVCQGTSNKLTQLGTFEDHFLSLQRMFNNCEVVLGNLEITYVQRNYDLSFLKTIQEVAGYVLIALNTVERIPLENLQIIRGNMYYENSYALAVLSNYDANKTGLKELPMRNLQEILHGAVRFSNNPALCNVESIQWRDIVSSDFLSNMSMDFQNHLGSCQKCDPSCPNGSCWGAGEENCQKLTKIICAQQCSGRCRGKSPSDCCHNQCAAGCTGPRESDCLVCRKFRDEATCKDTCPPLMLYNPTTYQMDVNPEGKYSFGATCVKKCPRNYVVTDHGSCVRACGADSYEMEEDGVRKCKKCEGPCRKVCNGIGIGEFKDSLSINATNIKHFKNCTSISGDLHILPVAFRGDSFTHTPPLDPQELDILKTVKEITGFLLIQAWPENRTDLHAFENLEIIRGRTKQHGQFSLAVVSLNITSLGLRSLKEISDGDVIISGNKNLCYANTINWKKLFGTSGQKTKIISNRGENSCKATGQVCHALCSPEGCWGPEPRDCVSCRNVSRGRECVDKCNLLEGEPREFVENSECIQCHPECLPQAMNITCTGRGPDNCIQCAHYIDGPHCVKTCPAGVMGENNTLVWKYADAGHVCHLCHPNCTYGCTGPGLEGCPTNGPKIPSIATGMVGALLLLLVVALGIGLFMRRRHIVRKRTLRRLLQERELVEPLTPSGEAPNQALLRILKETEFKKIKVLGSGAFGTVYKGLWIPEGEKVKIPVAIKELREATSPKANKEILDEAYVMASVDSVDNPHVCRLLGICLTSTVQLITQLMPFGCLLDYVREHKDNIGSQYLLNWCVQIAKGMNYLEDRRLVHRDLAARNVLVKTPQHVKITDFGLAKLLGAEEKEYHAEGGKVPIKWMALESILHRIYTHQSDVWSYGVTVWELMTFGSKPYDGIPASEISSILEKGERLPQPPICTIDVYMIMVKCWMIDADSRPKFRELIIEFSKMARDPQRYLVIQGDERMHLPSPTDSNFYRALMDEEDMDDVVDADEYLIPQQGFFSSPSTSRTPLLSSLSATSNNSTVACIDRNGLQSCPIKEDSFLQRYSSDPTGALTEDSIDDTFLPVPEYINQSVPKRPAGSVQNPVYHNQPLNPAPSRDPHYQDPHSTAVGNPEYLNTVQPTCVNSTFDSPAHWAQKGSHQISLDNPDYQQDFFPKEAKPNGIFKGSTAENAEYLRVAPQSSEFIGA

COCCOc1cnccc1-c1[nH]c2c(c1Nc1cc(F)cc(F)c1OC)C(=O)NCC2 [Example 30, 3-[(3,5-difluoro-2-methoxyphenyl)amino]-2-[3-(2-methoxyethoxy)pyridin-4-yl]-1,5,6,7-tetrahydro-4H-pyrrolo[3,2-c]pyridin-4-one]
IC50 [1, 3]: 0.0969 nM | IC50 [1, 4]: 0.109 nM | EGFR ins ASV IC50 [mol] (mean) [2]: 2.09e-10 mol | IC50 (Bub1): 323 nM | IC50 (Ba/F3-EGFR-insSVD cells; [5]): 149 nM | IC50 (Ba/F3-EGFR-WT cells; [6]): 1860 nM

COCCOc1cnccc1-c1[nH]c2c(c1Nc1cccc(F)c1C)C(=O)NCC2 [Example 20, 3-[(3-fluoro-2-methylphenyl)amino]-2-[3-(2-methoxyethoxy)pyridin-4-yl]-1,5,6,7-tetrahydro-4H-pyrrolo[3,2-c]pyridin-4-one]
IC50 [1, 3]: 0.149 nM | IC50 [1, 4]: 0.149 nM | EGFR ins ASV IC50 [mol] (mean) [2]: 3.22e-10 mol | IC50 (Bub1): 67.4 nM | IC50 (Ba/F3-EGFR-insSVD cells; [5]): 48.3 nM | IC50 (Ba/F3-EGFR-WT cells; [6]): 625 nM

COCCOc1cnccc1-c1[nH]c2c(c1Nc1ccccc1OC)C(=O)NCC2 [Example 13, 2-[3-(2-methoxyethoxy)pyridin-4-yl]-3-[(2-methoxyphenyl)amino]-1,5,6,7-tetrahydro-4H-pyrrolo[3,2-c]pyridin-4-one]
IC50 [1, 3]: 4.41 nM | IC50 [1, 4]: 4.41 nM | EGFR ins ASV IC50 [mol] (mean) [2]: 3.89e-08 mol | IC50 (Bub1): 350 nM | IC50 (Ba/F3-EGFR-insSVD cells; [5]): 811 nM | IC50 (Ba/F3-EGFR-WT cells; [6]): 4010 nM

COC(C)(C)COc1cnccc1-c1[nH]c2c(c1Nc1cccc(F)c1CC(F)F)C(=O)NCC2 [Example 23, 3-{[2-(2,2-difluoroethyl)-3-fluorophenyl]amino}-2-[3-(2-methoxy-2-methylpropoxy)pyridin-4-yl]-1,5,6,7-tetrahydro-4H-pyrrolo[3,2-c]pyridin-4-one]
IC50 [1, 3]: 0.259 nM | IC50 [1, 4]: 0.191 nM | EGFR ins ASV IC50 [mol] (mean) [2]: 3.42e-10 mol | IC50 (Bub1): 67.3 nM | IC50 (Ba/F3-EGFR-insSVD cells; [5]): 33 nM | IC50 (Ba/F3-EGFR-WT cells; [6]): 388 nM

COCCOc1cnccc1-c1[nH]c2c(c1Nc1ccccc1OC(F)F)C(=O)NCC2 [Example 11, 3-{[2-(difluoromethoxy)phenyl]amino}-2-[3-(2-methoxyethoxy)pyridin-4-yl]-1,5,6,7-tetrahydro-4H-pyrrolo[3,2-c]pyridin-4-one]
IC50 [1, 3]: 0.22 nM | IC50 [1, 4]: 0.292 nM | EGFR ins ASV IC50 [mol] (mean) [2]: 4.25e-09 mol | IC50 (Bub1): 192 nM | IC50 (Ba/F3-EGFR-insSVD cells; [5]): 357 nM | IC50 (Ba/F3-EGFR-WT cells; [6]): 1780 nM

COCCOc1cnccc1-c1[nH]c2c(c1Nc1ccccc1CC(F)F)C(=O)NCC2 [Example 15, 3-{[2-(2,2-difluoroethyl)phenyl]amino}-2-[3-(2-methoxyethoxy)pyridin-4-yl]-1,5,6,7-tetrahydro-4H-pyrrolo[3,2-c]pyridin-4-one]
IC50 [1, 3]: 0.489 nM | IC50 [1, 4]: 0.489 nM | EGFR ins ASV IC50 [mol] (mean) [2]: 1.34e-09 mol | IC50 (Bub1): 187 nM | IC50 (Ba/F3-EGFR-insSVD cells; [5]): 409 nM | IC50 (Ba/F3-EGFR-WT cells; [6]): 2870 nM

COc1c(F)cc(F)cc1Nc1c(-c2ccncc2OCC(C)(C)OC)[nH]c2c1C(=O)NCC2 [Example 31, 3-[(3,5-difluoro-2-methoxyphenyl)amino]-2-[3-(2-methoxy-2-methylpropoxy)pyridin-4-yl]-1,5,6,7-tetrahydro-4H-pyrrolo[3,2-c]pyridin-4-one]
IC50 [1, 3]: 0.0988 nM | IC50 [1, 4]: 0.193 nM | EGFR ins ASV IC50 [mol] (mean) [2]: 1.61e-10 mol | IC50 (Bub1): 265 nM | IC50 (Ba/F3-EGFR-insSVD cells; [5]): 158 nM | IC50 (Ba/F3-EGFR-WT cells; [6]): 1710 nM

CCOc1c(F)cccc1Nc1c(-c2ccncc2OCC(C)(C)OC)[nH]c2c1C(=O)NCC2 [Example 26, 3-[(2-ethoxy-3-fluorophenyl)amino]-2-[3-(2-methoxy-2-methylpropoxy)pyridin-4-yl]-1,5,6,7-tetrahydro-4H-pyrrolo[3,2-c]pyridin-4-one]
IC50 [1, 3]: 0.268 nM | IC50 [1, 4]: 0.415 nM | EGFR ins ASV IC50 [mol] (mean) [2]: 9.43e-10 mol | IC50 (Bub1): 85.8 nM | IC50 (Ba/F3-EGFR-insSVD cells; [5]): 618 nM | IC50 (Ba/F3-EGFR-WT cells; [6]): 2000 nM

COC(C)(C)COc1cnccc1-c1[nH]c2c(c1Nc1cccc(F)c1OCC(F)F)C(=O)NCC2 [Example 27, 3-{[2-(2,2-difluoroethoxy)-3-fluorophenyl]amino}-2-[3-(2-methoxy-2-methylpropoxy)pyridin-4-yl]-1,5,6,7-tetrahydro-4H-pyrrolo[3,2-c]pyridin-4-one]
IC50 [1, 3]: 2.14 nM | IC50 [1, 4]: 2.14 nM | EGFR ins ASV IC50 [mol] (mean) [2]: 7.09e-09 mol | IC50 (Bub1): 70.1 nM | IC50 (Ba/F3-EGFR-insSVD cells; [5]): 498 nM | IC50 (Ba/F3-EGFR-WT cells; [6]): 2500 nM

COCCOc1cnccc1-c1[nH]c2c(c1Nc1ccc(F)c(F)c1OC)C(=O)NCC2 [Example 28, 3-[(3,4-difluoro-2-methoxyphenyl)amino]-2-[3-(2-methoxyethoxy)pyridin-4-yl]-1,5,6,7-tetrahydro-4H-pyrrolo[3,2-c]pyridin-4-one]
IC50 [1, 3]: 0.738 nM | IC50 [1, 4]: 0.54 nM | EGFR ins ASV IC50 [mol] (mean) [2]: 2.69e-08 mol | IC50 (Bub1): 565 nM | IC50 (Ba/F3-EGFR-insSVD cells; [5]): 644 nM | IC50 (Ba/F3-EGFR-WT cells; [6]): 3670 nM

CC(C)(O)COc1cnccc1-c1[nH]c2c(c1Nc1cccc(F)c1)C(=O)NCC2 [Example 4, 3-[(3-fluorophenyl)amino]-2-[3-(2-hydroxy-2-methylpropoxy)pyridin-4-yl]-1,5,6,7-tetrahydro-4H-pyrrolo[3,2-c]pyridin-4-one]
IC50 [1, 3]: < 0.072 nM | IC50 [1, 4]: < 0.0725 nM | EGFR ins ASV IC50 [mol] (mean) [2]: 1.31e-10 mol | IC50 (Bub1): 12.5 nM | IC50 (Ba/F3-EGFR-insSVD cells; [5]): 329 nM | IC50 (Ba/F3-EGFR-WT cells; [6]): 1610 nM

O=C1NCCc2[nH]c(-c3ccncc3OCc3ccccc3)c(Nc3cccc(F)c3)c21 [Example 3, 2-[3-(benzyloxy)pyridin-4-yl]-3-[(3-fluorophenyl)amino]-1,5,6,7-tetrahydro-4H-pyrrolo[3,2-c]pyridin-4-one]
IC50 [1, 3]: 0.28 nM | IC50 [1, 4]: 0.28 nM | EGFR ins ASV IC50 [mol] (mean) [2]: 6.85e-09 mol | IC50 (Bub1): 47.6 nM | IC50 (Ba/F3-EGFR-insSVD cells; BaF3, Table 10, plated without EGF, 48 h): 587 nM | IC50 (Ba/F3-EGFR-WT cells; BaF3, Table 10, plated with 10 ng/mL EGF, 48 h): 2160 nM
